The text below walks through data of patent US20230139171A1 (SITA Information Networking Computing UK Limited, priority 2019, published 2023).

Broadly, the IC50 is the midpoint of a concentration-inhibition curve.

One assay addresses T1, human TLR7 (Homo sapiens, UniProt Q9NYK1).
T1 construct: host or cells: HEK-Blue cells
T1 sequence (Q9NYK1 27-1049): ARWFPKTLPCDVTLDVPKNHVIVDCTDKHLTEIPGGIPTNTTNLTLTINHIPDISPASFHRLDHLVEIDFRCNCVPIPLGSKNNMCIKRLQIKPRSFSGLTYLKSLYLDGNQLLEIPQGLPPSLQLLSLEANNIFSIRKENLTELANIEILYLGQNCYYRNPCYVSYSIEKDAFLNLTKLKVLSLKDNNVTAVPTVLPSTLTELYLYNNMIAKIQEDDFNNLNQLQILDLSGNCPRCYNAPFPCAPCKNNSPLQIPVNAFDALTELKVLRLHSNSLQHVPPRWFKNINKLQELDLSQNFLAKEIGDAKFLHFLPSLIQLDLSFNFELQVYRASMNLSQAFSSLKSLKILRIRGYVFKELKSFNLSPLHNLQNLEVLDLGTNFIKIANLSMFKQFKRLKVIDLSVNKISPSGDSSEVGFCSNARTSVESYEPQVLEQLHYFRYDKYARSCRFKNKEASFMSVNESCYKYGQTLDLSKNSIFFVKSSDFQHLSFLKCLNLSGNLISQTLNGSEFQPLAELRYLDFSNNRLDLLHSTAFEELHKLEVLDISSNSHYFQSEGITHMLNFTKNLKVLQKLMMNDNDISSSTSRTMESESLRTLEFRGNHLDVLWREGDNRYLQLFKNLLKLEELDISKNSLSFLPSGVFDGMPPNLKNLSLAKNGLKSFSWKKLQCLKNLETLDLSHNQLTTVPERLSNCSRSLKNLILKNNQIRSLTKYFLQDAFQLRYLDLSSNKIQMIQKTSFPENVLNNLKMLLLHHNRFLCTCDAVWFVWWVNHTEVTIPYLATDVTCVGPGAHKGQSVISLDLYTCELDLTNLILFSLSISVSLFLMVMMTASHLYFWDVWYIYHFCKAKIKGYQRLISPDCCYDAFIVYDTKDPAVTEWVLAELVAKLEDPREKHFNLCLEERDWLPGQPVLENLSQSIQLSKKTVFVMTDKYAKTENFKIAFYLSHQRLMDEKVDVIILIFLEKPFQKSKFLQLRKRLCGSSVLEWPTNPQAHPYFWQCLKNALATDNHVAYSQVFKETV
The assay is described as follows: TLR7 inhibition reporter assay (HEK-Blue cells, SEAP reporter, gardiquimod stimulation). To be noted: HEK-Blue cells overexpressing human TLR7, SEAP reporter, gardiquimod 7.5 μM; read-out: TLR7 IC50. Type of assay: cell-based. Put shortly:
(§1)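 Human TLR7/8/9 HEK-Blue reporter lines; dose range 0.05 nM–50 μM; 30 min RT preincubation; stimulus gardiquimod 7.5 μM / R848 15.9 μM / ODN2006 5 nM respectively; 22 h, 37 °C; SEAP detected colorimetrically.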
For orientation: Reporter assays use an easily measured gene product as a stand-in for the process of interest.

In a further assay the target is T2, human TLR8 (Homo sapiens, UniProt Q9NR97).
T2 construct: host or cells: HEK-Blue cells
T2 sequence (Q9NR97 27-1041): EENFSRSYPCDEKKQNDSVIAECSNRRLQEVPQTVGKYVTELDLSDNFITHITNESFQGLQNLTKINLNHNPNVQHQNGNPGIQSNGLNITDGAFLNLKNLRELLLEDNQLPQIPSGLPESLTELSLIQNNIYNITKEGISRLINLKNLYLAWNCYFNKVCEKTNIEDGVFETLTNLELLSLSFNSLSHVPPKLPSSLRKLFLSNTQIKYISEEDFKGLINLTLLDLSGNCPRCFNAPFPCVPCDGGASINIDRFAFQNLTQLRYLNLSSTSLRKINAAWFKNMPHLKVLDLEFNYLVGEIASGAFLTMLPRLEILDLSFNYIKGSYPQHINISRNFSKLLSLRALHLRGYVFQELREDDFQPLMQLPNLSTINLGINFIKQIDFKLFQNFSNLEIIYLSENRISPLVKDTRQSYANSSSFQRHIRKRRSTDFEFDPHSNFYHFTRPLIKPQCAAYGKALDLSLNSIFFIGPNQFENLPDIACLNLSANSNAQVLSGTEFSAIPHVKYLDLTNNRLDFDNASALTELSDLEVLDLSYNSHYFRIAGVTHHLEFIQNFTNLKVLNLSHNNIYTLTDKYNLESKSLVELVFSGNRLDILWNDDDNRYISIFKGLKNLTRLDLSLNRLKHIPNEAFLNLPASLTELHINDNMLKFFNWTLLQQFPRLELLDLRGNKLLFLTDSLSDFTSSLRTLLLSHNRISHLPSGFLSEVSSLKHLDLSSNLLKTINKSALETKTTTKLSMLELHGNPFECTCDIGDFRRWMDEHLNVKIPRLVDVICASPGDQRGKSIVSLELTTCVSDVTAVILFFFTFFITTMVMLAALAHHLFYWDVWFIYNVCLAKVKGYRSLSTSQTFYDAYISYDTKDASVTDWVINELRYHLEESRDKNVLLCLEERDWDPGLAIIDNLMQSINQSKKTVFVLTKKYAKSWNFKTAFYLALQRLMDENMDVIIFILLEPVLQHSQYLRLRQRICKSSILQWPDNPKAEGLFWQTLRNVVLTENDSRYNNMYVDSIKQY
The assay is described as follows: TLR8 inhibition reporter assay (HEK-Blue cells, SEAP reporter, R848 stimulation). The class given is cell-based. To be noted: HEK-Blue cells overexpressing human TLR8, SEAP reporter, R848 15.9 μM; read-out: TLR8 IC50. Put shortly:
as §1

Turning to `Cc1c(-c2[nH]c3sc(C(=O)N4CCNC(=O)C4)nc3c2C(C)C)cn2ncnc2c1C` [Example 378, 4-(5-(7,8-dimethyl-[1,2,4]triazolo[1,5-a]pyridin-6-yl)-6-isopropyl-4H-pyrrolo[3,2-d]thiazole-2-carbonyl)piperazin-2-one], the results for the IC50 on human TLR7 and on human TLR8 were 29.4 nM and 12.2 nM, respectively.

Turning to `Cc1c(-c2[nH]c3sc(C(=O)N4CCN(S(C)(=O)=O)CC4)nc3c2C(C)C)cn2ncnc2c1C` [Example 384, (5-(7,8-dimethyl-[1,2,4]triazolo[1,5-a]pyridin-6-yl)-6-isopropyl-4H-pyrrolo[3,2-d]thiazol-2-yl)(4-(methylsulfonyl)piperazin-1-yl) methanone], the IC50 on human TLR7 came out at 39.5 nM; on human TLR8, 20.1 nM.

As to `Cc1c(-c2[nH]c3sc(C(N)=O)nc3c2C(C)C)cn2ncnc2c1C` [Example 385, 5-(7,8-dimethyl-[1,2,4]triazolo[1,5-a]pyridin-6-yl)-6-isopropyl-4H-pyrrolo[3,2-d]thiazole-2-carboxamide], the results for the IC50 at human TLR7 and at human TLR8 were 58.8 nM and 31.4 nM, respectively.

As for `COc1cc(-c2[nH]c3sc(C(=O)NCC(F)(F)F)nc3c2C(C)C)cn2ncnc12` [Example 390, 6-isopropyl-5-(8-methoxy-[1,2,4]triazolo[1,5-a]pyridin-6-yl)-N-(2,2,2-trifluoroethyl)-4H-pyrrolo[3,2-d]thiazole-2-carboxamide], the IC50 on human TLR7 was 93.6 nM; on human TLR8, 481 nM.

Turning to `Cc1cc(-c2[nH]c3sc(C(N)=O)nc3c2C(C)C)cn2ncnc12` [Example 391, 6-isopropyl-5-(8-methyl-[1,2,4]triazolo[1,5-a]pyridin-6-yl)-4H-pyrrolo[3,2-d]thiazole-2-carboxamide], the IC50 was 102 nM at human TLR7 and 118 nM at human TLR8.

`Cc1cc(-c2[nH]c3sc(C(=O)N4CCNC(=O)C4)nc3c2C(C)C)cn2ncnc12` [Example 392, 4-(6-isopropyl-5-(8-methyl-[1,2,4]triazolo[1,5-a]pyridin-6-yl)-4H-pyrrolo[3,2-d]thiazole-2-carbonyl)piperazin-2-one]: the IC50 on human TLR7 came out at 241 nM; at human TLR8 it was 404 nM.

Take `Cc1cc(-c2[nH]c3sc(C(=O)N4CCCC4)nc3c2C(C)C)cn2ncnc12` [Example 393, (6-isopropyl-5-(8-methyl-[1,2,4]triazolo[1,5-a]pyridin-6-yl)-4H-pyrrolo[3,2-d]thiazol-2-yl)(pyrrolidin-1-yl) methanone]: the IC50 worked out at 77.6 nM at human TLR7 and 140 nM on human TLR8.

On to `Cc1cc(-c2[nH]c3sc(C(=O)N4CCCOCC4)nc3c2C(C)C)cn2ncnc12` [Example 394, (6-isopropyl-5-(8-methyl-[1,2,4]triazolo[1,5-a]pyridin-6-yl)-4H-pyrrolo[3,2-d]thiazol-2-yl)(1,4-oxazepan-4-yl)methanone], for which the IC50 was determined as 154 nM on human TLR7 and 529 nM at human TLR8.

As for `COC1CN(C(=O)c2nc3c(C(C)C)c(-c4cc(C)c5ncnn5c4)[nH]c3s2)C1` [Example 396, (6-isopropyl-5-(8-methyl-[1,2,4]triazolo[1,5-a]pyridin-6-yl)-4H-pyrrolo[3,2-d]thiazol-2-yl)(3-methoxyazetidin-1-yl)methanone], the IC50 on human TLR7 was 102 nM; on human TLR8, 53.9 nM.

As to `Cc1cc(-c2[nH]c3sc(C(=O)NC4COC4)nc3c2C(C)C)cn2ncnc12` [Example 397, 6-isopropyl-5-(8-methyl-[1,2,4]triazolo[1,5-a]pyridin-6-yl)-N-(oxetan-3-yl)-4H-pyrrolo[3,2-d]thiazole-2-carboxamide], the results for the IC50 at human TLR7 and on human TLR8 were 221 nM and 463 nM, respectively.

With `Cc1cc(-c2[nH]c3sc(C(=O)N4CCOCC4)nc3c2C(C)C)cn2ncnc12` [Example 398, (6-isopropyl-5-(8-methyl-[1,2,4]triazolo[1,5-a]pyridin-6-yl)-4H-pyrrolo[3,2-d]thiazol-2-yl)(morpholino)methanone], the IC50 on human TLR7 is 137 nM; on human TLR8, 365 nM.
